Laboratory results published in patent US9232799B2, “N-[(het)arylethyl)] pyrazole(thio)carboxamides and their heterosubstituted analogues” (BAYER INTELLECTUAL PROPERTY GMBH, priority 2010, dated 2016).

Assays:
[1] = logP by HPLC on reversed-phase column (C 18), EEC Directive 79/831 Annex V.A8; type: physicochemical
Description: In table 1, the logP values were determined in accordance with EEC Directive 79/831 Annex V.A8 by HPLC (High Performance Liquid Chromatography) on a reversed-phase column (C 18), using the method described below: Temperature: 40° C.; […]

Fusarium graminearum = experiment: microbe, parasite or virus in culture; type: cell-based; conditions: 50 μM
Alternaria solani = experiment: In vivo preventive test on Alternaria solani (tomato); conditions: 500 ppm of active ingredient, evaluated 7 days after inoculation
Source text: One day after this treatment, the plants are inoculated with an aqueous spore suspension of Alternaria solani.

aflatoxines production = experiment: microbe, parasite or virus in culture; type: cell-based, Aspergillus parasiticus; conditions: 50 μM
Pyrenophora teres = experiment: In vivo preventive test on Pyrenophora teres (barley); conditions: 500 ppm of active ingredient, evaluated 7-9 days after inoculation
Source text: One day after this treatment, the plants are inoculated with an aqueous spore suspension of Pyrenophora teres.

Row | SMILES | logP [1] | % Inhibition of fungal growth at 50 μM (Fusarium graminearum) [%] | Efficacy (Alternaria solani) [%] | % Inhibition of Aflatoxin at 50 μM (aflatoxines production) [%] | Efficacy (Pyrenophora teres) [%]
1 | CN(CCc1ccccc1)C(=O)c1c(C(F)F)nn(C)c1F [Example 4] | 2.43 | 91 | 100 | 100 | 95
2 | CC(CNC(=O)c1c(C(F)F)nn(C)c1F)c1ccc(C(F)(F)F)cc1 (stereo not drawn) [Example 127] | 3.25 | 100 | 100 | 100 | 100
3 | Cn1nc(C(F)F)c(C(=O)N(C[Si](C)(C)c2ccsc2)C2CC2)c1Cl [Example 247] | 3.71 | 100 | 94 | 100 | 100
4 | Cn1nc(C(F)F)c(C(=O)NC[Si](C)(C)c2ccccc2)c1Cl [Example 227] | 3.31 | 71 | 95 | 87 | 100
5 | Cn1nc(C(F)F)c(C(=O)NC[Si](C)(C)c2cc(Cl)cc(Cl)c2)c1F [Example 244] | 4.08 | 100 | 100 | 100 | 95
6 | Cn1nc(C(F)F)c(C(=O)NCCc2ccsc2Br)c1F [Example 166] | 2.64 | 97 | – | 100 | –
7 | Cc1ccsc1CCNC(=O)c1c(C(F)F)nn(C)c1F [Example 164] | 2.49 | 95 | 95 | 100 | 100
8 | CC(CNC(=O)c1c(C(F)F)nn(C)c1F)c1cccc(Cl)c1 (stereo not drawn) [Example 51] | 3.02 | 100 | 100 | 100 | 100
9 | Cn1nc(C(F)F)c(C(=O)NCCc2ccccc2Cl)c1F [Example 32] | 2.69 | 99 | 95 | 100 | 100
10 | Cn1nc(C(F)F)c(C(=O)NCCc2c(Cl)cccc2Cl)c1Cl [Example 118] | 3.21 | 81 | 90 | 100 | 94
11 | CC(CNC(=O)c1c(C(F)F)nn(C)c1Cl)c1ccccc1Cl (stereo not drawn) [Example 40] | 3.15 | 78 | 100 | 99 | 94
12 | CCN(C(=O)c1c(C(F)F)nn(C)c1F)C(C)C(=O)c1ccccc1 (stereo not drawn) [Example 17] | 2.59 | 83 | 80 | 100 | –
13 | Cn1nc(C(F)F)c(C(=O)NCC(c2cccs2)C(F)(F)F)c1Cl (stereo not drawn) [Example 162] | 2.92 | 80 | 100 | 98 | 95
14 | CC(Cc1ccco1)NC(=O)c1c(C(F)F)nn(C)c1Cl (stereo not drawn) [Example 174] | 2.37 | 76 | – | 89 | –
15 | Cc1cc(C)c(CCN(C)C(=O)c2c(C(F)F)nn(C)c2F)c(C)c1 [Example 135] | 3.48 | 96 | 95 | 100 | 95
16 | Cn1nc(C(F)F)c(C(=O)N(CCc2ccccc2)C2CC2)c1Cl [Example 12] | 3.06 | 92 | 100 | 100 | 100
17 | Cn1nc(C(F)F)c(C(=O)NCCc2c(Cl)cccc2Cl)c1F [Example 117] | 3.00 | 100 | 95 | 100 | 100
18 | CN(CCc1ccc(F)cc1)C(=O)c1c(C(F)F)nn(C)c1F [Example 22] | 2.50 | 100 | 100 | 100 | 100
19 | Cn1nc(C(F)F)c(C(=O)NCCc2cc(Cl)ccc2Cl)c1F [Example 90] | 3.11 | 100 | 95 | 100 | 100
20 | Cc1c(CCNC(=O)c2c(C(F)F)nn(C)c2F)sc2ccccc12 [Example 171] | 3.27 | 93 | 100 | 100 | 100
21 | Cn1nc(C(F)F)c(C(=O)NCCc2ncc(C(F)(F)F)cc2Cl)c1Cl [Example 191] | 2.97 | 100 | 94 | 100 | 100
22 | CC(CNC(=O)c1c(C(F)F)nn(C)c1Cl)c1c(F)cccc1F (stereo not drawn) [Example 29] | 2.92 | 82 | 100 | 100 | 100

Row | SMILES | logP [1] | % Inhibition of fungal growth at 50 μM (Fusarium graminearum) [%] | Efficacy (Alternaria solani) [%] | % Inhibition of Aflatoxin at 50 μM (aflatoxines production) [%] | Efficacy (Pyrenophora teres) [%]
23 | CC(CNC(=O)c1c(C(F)F)nn(C)c1Cl)c1ccc(C(F)(F)F)cc1 (stereo not drawn) [Example 128] | 3.39 | 82 | 100 | 100 | 94
24 | Cn1nc(C(F)F)c(C(=O)NCCc2ccccc2Cl)c1Cl [Example 34] | 2.88 | 84 | 100 | 100 | 100
25 | Cn1nc(C(F)F)c(C(=O)NCC(c2cccs2)C(F)(F)F)c1F (stereo not drawn) [Example 161] | 2.75 | 85 | 95 | 100 | 100
26 | COc1ccc(CCN(C)C(=O)c2c(C(F)F)nn(C)c2F)cc1OC [Example 129] | 2.04 | 70 | – | 90 | 90
27 | CC(CNC(=O)c1c(C(F)F)nn(C)c1F)c1ccccc1Cl (stereo not drawn) [Example 39] | 2.94 | 100 | 100 | 100 | 100
28 | C#CCOc1cc(C(OC)C(C)NC(=O)c2c(C(F)F)nn(C)c2Cl)ccc1OC (stereo not drawn) [Example 159] | 2.76 | 77 | – | 98 | –
29 | Cn1nc(C(F)F)c(C(=O)NC2CC2c2ccc(F)cc2)c1F (stereo not drawn) [Example 220] | 2.59 | 81 | – | 100 | 100
30 | CC(Cc1ccco1)NC(=O)c1c(C(F)F)nn(C)c1F (stereo not drawn) [Example 173] | 2.20 | 83 | – | 100 | –
31 | Cn1nc(C(F)F)c(C(=O)NCC(C)(C)c2cc(Cl)cc(Cl)c2)c1F [Example 113] | 3.87 | – | 80 | – | 90
32 | CN(CC(=O)c1ccc(Cl)cc1)C(=O)c1c(C(F)F)nn(C)c1F [Example 61] | 2.53 | 84 | 90 | 100 | –
33 | Cc1scc(CCNC(=O)c2c(C(F)F)nn(C)c2Cl)c1C [Example 168] | 3.02 | 97 | – | 100 | –
34 | Cn1nc(C(F)F)c(C(=O)NCCc2cccc(Oc3ccccc3)c2)c1F [Example 143] | 3.37 | – | 95 | – | 89
35 | Cn1nc(C(F)F)c(C(=O)NCCc2csc3c2CCCC3)c1F [Example 170] | 3.31 | 95 | – | 100 | –
36 | Cn1nc(C(F)F)c(C(=S)NC[Si](C)(C)c2ccccc2Cl)c1F [Example 234] | 4.11 | – | 70 | – | 100
37 | CC(CN(C)C(=O)c1c(C(F)F)nn(C)c1Cl)c1ccncc1 (stereo not drawn) [Example 207] | 1.74 | 37 | – | 99 | –
38 | CN(CCc1ccc(C(C)(C)C)cc1)C(=O)c1c(C(F)F)nn(C)c1Cl [Example 139] | 3.96 | – | 90 | – | 90
39 | Cn1nc(C(F)F)c(C(=O)NC(C)(C)Cc2cccc(Oc3ccccc3)c2)c1F [Example 142] | 4.09 | – | 90 | – | 78
40 | CC(Cc1c(F)cccc1F)N(C(=O)c1c(C(F)F)nn(C)c1Cl)C1CC1 (stereo not drawn) [Example 27] | 3.57 | – | 95 | – | 95
41 | CC(Cc1c(Cl)cccc1Cl)N(C(=O)c1c(C(F)F)nn(C)c1Cl)C1CC1 (stereo not drawn) [Example 116] | 4.29 | – | 100 | – | 100
42 | COCCN(CCc1ccncc1)C(=O)c1c(C(F)F)nn(C)c1Cl [Example 202] | 1.69 | 81 | – | 99 | –
43 | Cn1nc(C(F)F)c(C(=O)NC2CCCCC2c2ccccc2)c1F (stereo not drawn) [Example 212] | 3.13 | 99 | 89 | 100 | –
